Data taken from patent publication US8513277B2, “Pyrrolo[3,2-C] pyridine derivatives and processes for the preparation thereof” (Yuhan Corporation, priority 2004, dated 2013).
Structures can show the parent of a compound that is named as a salt.

How the values were obtained:
[1] = molecular target: T1, H+/K+-ATPase (hog gastric vesicle) (Sus scrofa, UniProt P19156); experiment: Inhibitory effects on proton pump (H+/K+-ATPase) activity; type: biochemical; details: K+ stimulated H+/K+-ATPase activity, hog gastric vesicles, Pi measured at 620 nm
T1 construct: used as an enzyme source of the in vitro enzyme reaction assay of proton pump; from tissue; host or cells: hog gastric fundic mucosa, membrane vesicles (sucrose/Ficoll gradient), lyophilized
Procedure: The hog fundic regions containing parietal and peptic cells were scraped with slide-glass. The collected cells were suspended in 10 ml of 0.25M sucrose buffer and homogenized using a tight-fitting Teflon-glass homogenizer. The homogenate was centrifuged for 35 min at 8,000 rpm and the pellet was discarded. The supernatant was further centrifuged for 75 min at 25,000 rpm. The resulting pellets were re-suspended in the sucrose buffer (10 ml), and then the suspension was laid onto discontinuous density gradients consisting of 0.25M sucrose buffer and isolation medium containing 9% Ficoll (w/w). After being centrifuged for 3 hours and 15 minutes at 100,000×g, the material at the interface of sucrose buffer and Ficoll solution was collected and then centrifuged for 40 minutes at 100,000×g. The resulting pellets were re-suspended in 1 ml of 5 mM […] buffer (pH 6.1). This material was lyophilized and stored at −70° C. and used as an enzyme source of the in vitro enzyme reaction assay of proton pump. The inhibitory effects of the compounds of the present invention against proton pump activity were evaluated in 96-well plate. In this assay, the K^+ specific H^+/K^+-ATPase activity was calculated based on the difference between the activity of H^+/K^+-ATPase activity with K^+ and without K^+ ion. In 96-well plate, 1% dimethylsulfoxide (DMSO) in buffer was added to negative and positive control groups and the diluted compounds of the present invention in buffer were added to test group. All assays were performed in 100 μl reaction volume at room temperature, and the hog gastric vesicle was kept in ice before use. […] Then lyophilized vesicle in 5 mM Pipes/Tris buffer (pH 6.1) was pre-incubated in the presence of various concentrations of test compounds. After a 5 minute incubation, negative and positive buffers were respectively added to the previous reaction mixture. As the substrate, ATP was added to the reaction buffer, and incubated for 30 minutes at 37° C. Enzymatic activity was stopped by the addition of colorimetric reagent (2× malachite green, 1× ammonium molybdate, 1× polyvinyl alcohol, 2× H2O) and the amount of mono phosphate (Pi) in the reaction was measured at 620 nm using the micro plate reader (Genios Pro, TECAN). The difference between the Pi production with K^+ and without K^+ is taken as K^+ stimulated H^+/K^+-ATPase activity. The IC50s of test compounds were calculated from each % inhibition value of compounds using the method of Litchfield-Wilcoxon (J. Pharmacol. Exp. Ther. (1949) 96, 99).

[2] = system: basal gastric acid secretion in pylorus-ligated rats; experiment: Inhibitory effects on basal gastric acid secretion in pylorus-ligated rats (Shay's rat model); type: in vivo, rat (Sprague Dawley); details: oral, one hour before pylorus ligation, total acid output 5 hours after ligation, male SD rats
Procedure: Inhibitory effects of the compounds of the present invention on basal gastric acid secretion were performed according to Shay's rat model (Shay, H., et al., 1945, gastroenterology, 5, 43-61). Male Sprague Dawley (SD) rats (200±10 g body weight) were divided into […] (n=5) and fasted for 24 hours with free access to water. Control group was orally administered with 0.5% methylcellulose alone and the other groups were orally administered with test compounds suspended in 0.5% methylcellulose solution at doses of 1, 3 and 10 mg/kg/5 ml one hour before pylorus ligation.
Under ether anesthesia, the abdomens of the rats were incised and then the pylorus was ligated. 5 hours after ligation, the animals were sacrificed, and the gastric contents were collected. The collected contents were centrifuged at 1,000×g for 10 minutes to obtain the gastric juice. Total acid output was measured by 0.01 N NaOH volume (ueq/ml) for automatic titration of the gastric juice to pH 7.0 and the ED50s of test compounds were calculated using the Litchfield-Wilcoxon method. % inhibitory activity was calculated from the following equation and the results are shown in Table 2.
% inhibitory activity of test compound=(total acid output of control group−total acid output of the group treated with test compounds)/total acid output of control group×100

[3] = molecular target: T2, hog gastric H+/K+-ATPase (Sus scrofa, UniProt P19156); experiment: Reversible inhibition of hog gastric H+/K+-ATPase (washout method); type: biochemical
T2 construct: Gastric vesicles were prepared from hog fundic mucosa; from tissue; host or cells: hog fundic mucosa, gastric vesicles (microsomes), lyophilized
Procedure: Gastric vesicles were prepared from hog fundic mucosa using the method of Saccomani et al. (Saccomani G, Stewart H B, Shqw D, Lewin M and Sachs G, Characterization of gastric mucosal membranes. IX. Fraction and purification of K-ATPase-containing vesicles by zonal centrifugation and free-flow electrophoresis technique. Biochem. Biophy. Acta. (BBA)-Biomembranes 465, 311-330, 1977). This material was lyophilized and stored at −70° C. The protein content of gastric vesicles was determined by the Bradford method using bovine serum albumin as a standard (Bradford MM, A rapid and sensitive method for the quantitation of microgram quantities of protein utilizing the principle of protein-dye binding. Anal Biochem. 72, 248-254, 1976).
Activity of H^+/K^+-ATPase in hog microsome (lyophilized vesicle) was measured by the inorganic phosphate released from ATP using an one-step colorimetric detection method at the concentration at which the test compounds have 50% inhibition of the proton pump (Chan K M, Delfert D, and Junger K D, A direct colorimetric assay for Ca^2+-stimulated ATPase activity. Anal Biochem, 157, 375-380, 1986). […]

T1 sequence (P19156 2-1034 limits assumed): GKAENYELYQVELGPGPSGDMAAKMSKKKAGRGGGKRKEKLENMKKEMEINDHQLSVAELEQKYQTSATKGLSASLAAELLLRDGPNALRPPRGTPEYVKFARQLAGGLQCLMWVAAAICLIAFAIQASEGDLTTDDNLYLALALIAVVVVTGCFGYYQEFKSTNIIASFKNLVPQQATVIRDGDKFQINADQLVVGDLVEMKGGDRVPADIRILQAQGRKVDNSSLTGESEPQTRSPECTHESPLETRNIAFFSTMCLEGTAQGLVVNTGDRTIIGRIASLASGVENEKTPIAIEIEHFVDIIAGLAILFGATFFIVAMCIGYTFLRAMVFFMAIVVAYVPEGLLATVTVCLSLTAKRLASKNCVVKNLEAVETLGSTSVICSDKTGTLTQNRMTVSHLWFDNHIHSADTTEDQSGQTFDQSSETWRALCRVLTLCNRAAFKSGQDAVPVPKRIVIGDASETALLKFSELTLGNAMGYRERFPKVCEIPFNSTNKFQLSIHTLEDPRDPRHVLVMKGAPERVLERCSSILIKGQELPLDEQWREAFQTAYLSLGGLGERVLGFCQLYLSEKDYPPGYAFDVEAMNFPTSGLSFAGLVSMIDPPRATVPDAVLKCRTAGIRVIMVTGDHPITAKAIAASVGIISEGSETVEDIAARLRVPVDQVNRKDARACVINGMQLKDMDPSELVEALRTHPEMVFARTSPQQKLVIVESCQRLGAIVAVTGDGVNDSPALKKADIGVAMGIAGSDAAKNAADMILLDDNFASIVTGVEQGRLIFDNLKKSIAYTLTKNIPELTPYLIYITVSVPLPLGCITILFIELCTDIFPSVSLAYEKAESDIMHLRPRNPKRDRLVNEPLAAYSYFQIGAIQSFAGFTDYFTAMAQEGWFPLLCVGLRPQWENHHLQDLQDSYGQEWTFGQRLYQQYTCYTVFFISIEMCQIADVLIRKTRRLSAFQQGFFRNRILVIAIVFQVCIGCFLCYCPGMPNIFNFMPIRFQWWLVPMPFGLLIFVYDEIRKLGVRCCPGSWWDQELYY
T1 sequence (P18434 whole entry partner): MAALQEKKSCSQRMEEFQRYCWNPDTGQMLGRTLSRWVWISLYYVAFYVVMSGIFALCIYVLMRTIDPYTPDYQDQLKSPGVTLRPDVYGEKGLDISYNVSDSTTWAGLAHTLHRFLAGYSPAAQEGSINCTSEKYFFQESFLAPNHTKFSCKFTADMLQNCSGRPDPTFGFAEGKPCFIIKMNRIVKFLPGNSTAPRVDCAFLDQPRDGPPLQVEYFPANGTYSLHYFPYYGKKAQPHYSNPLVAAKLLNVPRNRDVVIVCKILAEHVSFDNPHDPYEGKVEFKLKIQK
T2 sequence (P19156 2-1034 limits assumed): as the sequence (P19156 2-1034 limits assumed) above
T2 sequence (P18434 whole entry partner): as the sequence (P18434 whole entry partner) above

COCCn1c(C)c(Cc2ccccc2)c2c(N3CCc4ccccc4C3)nccc21 [Example 63, 3-benzyl-1-(2-methoxyethyl)-2-methyl-4-(1,2,3,4-tetrahydroisoquinolin-2-yl)-1H-pyrrolo[3,2-c]pyridine hydrochloride]
IC50 [1]: < 4000 nM

COCCn1c(C)c(C)c2c(N3CCc4ccccc4C3)nccc21 [Example 3, 2,3-dimethyl-1-(2-methoxyethyl)-4-(1,2,3,4-tetrahydroisoquinolin-2-yl)-1H-pyrrolo[3,2-c]pyridine hydrochloride]
IC50 [1]: 2050 nM

Cc1c(C)n(CCO)c2ccnc(N3CCc4ccccc4C3)c12 [Example 20, 2,3-dimethyl-1-(2-hydroxyethyl)-4-(1,2,3,4-tetrahydroisoquinolin-2-yl)-1H-pyrrolo[3,2-c]pyridine hydrochloride]
IC50 [1]: < 4000 nM

Cc1c(Cc2ccccc2)c2c(N3CCc4ccccc4C3)nccc2n1CC1OCCO1 [Example 65, 3-benzyl-1-([1,3]dioxolan-2-ylmethyl)-2-methyl-4-(1,2,3,4-tetrahydroisoquinolin-2-yl)-1H-pyrrolo[3,2-c]pyridine hydrochloride]
IC50 [1]: 2120 nM

Cc1[nH]c2ccnc(NCc3ccc(F)cc3)c2c1Cc1ccccc1 [Example 71, 3-benzyl-2-methyl-4-(4-fluorobenzylamino)-1H-pyrrolo[3,2-c]pyridine hydrochloride]
IC50 [1]: 530 nM

Cc1c(Cc2ccccc2)c2c(N3CCc4ccccc4C3)nccc2n1C.Cl [Example 56, 3-benzyl-1,2-dimethyl-4-(1,2,3,4-tetrahydroisoquinolin-2-yl)-1H-pyrrolo[3,2-c]pyridine hydrochloride]
IC50 [1]: 230 nM | ED50 [2]: 2.9 mg/kg

Cc1c(Cc2ccccc2)c2c(N3CCc4ccccc4C3)nccc2n1Cc1ccccc1 [Example 66, 1,3-dibenzyl-2-methyl-4-(1,2,3,4-tetrahydroisoquinolin-2-yl)-1H-pyrrolo[3,2-c]pyridine hydrochloride]
IC50 [1]: < 4000 nM

Cc1[nH]c2ccnc(N3CCc4ccccc4C3)c2c1Cc1ccccc1.Cl [Example 55, 3-benzyl-2-methyl-4-(1,2,3,4-tetrahydroisoquinolin-2-yl)-1H-pyrrolo[3,2-c]pyridine hydrochloride]
IC50 [1]: 90 nM | ED50 [2]: 1.6 mg/kg | inhibition of H+/K+-ATPase activity after washout ([3]; after washout, compared with non-treated group): did not inhibit | inhibition of H+/K+-ATPase activity before washout ([3]; before washout, compound at the concentration giving 50% inhibition): 50%

Cc1[nH]c2ccnc(N3CCc4ccccc4C3)c2c1C [Example 1, 2,3-dimethyl-4-(1,2,3,4-tetrahydroisoquinolin-2-yl)-1H-pyrrolo[3,2-c]pyridine]
IC50 [1]: 470 nM

Cc1c(Cc2ccccc2)c2c(N3CCc4ccccc4C3)nccc2n1C1CC1 [Example 61, 3-benzyl-1-cyclopropyl-2-methyl-4-(1,2,3,4-tetrahydroisoquinolin-2-yl)-1H-pyrrolo[3,2-c]pyridine hydrochloride]
IC50 [1]: 280 nM

CCn1c(C)c(C)c2c(N3CCc4ccccc4C3)nccc21 [Example 7, 1-ethyl-2,3-dimethyl-4-(1,2,3,4-tetrahydroisoquinolin-2-yl)-1H-pyrrolo[3,2-c]pyridine hydrochloride]
IC50 [1]: 1030 nM

Cc1[nH]c2ccnc(N3CCc4ccccc4C3)c2c1Cc1ccccc1 [Example 70, 3-benzyl-2-methyl-4-(1,2,3,4-tetrahydroisoquinolin-2-yl)-1H-pyrrolo[3,2-c]pyridine sodium]
IC50 [1]: 220 nM

Cc1c(C)n(C)c2ccnc(N3CCc4ccccc4C3)c12 [Example 6, 1,2,3-trimethyl-4-(1,2,3,4-tetrahydroisoquinolin-2-yl)-1H-pyrrolo[3,2-c]pyridine hydrochloride]
IC50 [1]: 430 nM
